The record followed here is patent US20150218212A1, “FLUORINATED EPOXYKETONE-BASED TETRAPEPTIDE COMPOUNDS AND USES THEREOF AS PROTEASOME INHIBITORS” (FLUORINOV PHARMA INC., priority 2012, published 2015).

Where two headings read alike, the source gives them in different places.

Experiment [1] addresses T1, proteasome Chymotrypsin-like (CT-L) activity (Mus musculus, UniProt O09061+O55234).
T1 construct: RBCs were lysed with assay lysis buffer and incubated on ice for 30 minutes; from tissue; host or cells: red blood cells of NOD/SCID mice
Kind of experiment: Pharmacodynamic proteasome activity in murine red blood cells, CT-L. The class given is in vivo, NOD/SCID mice. As to conditions: iv, mice, 2 mg/kg i.v. The protocol: Cells were harvested by centrifugation at 1,200 rpm at room temperature. Cell pellets were washed with PBS (phosphate buffered saline) and lysed with assay lysis buffer (50 mM HEPES (N-2-hydroxyethylpiperazine-N′-2-ethanesulfonic acid), pH 7.5; 150 mM NaCl; 1% Triton X-100; 2 mM ATP). Cell lysates were incubated on ice for 30 minutes, mixed by vortex every 5 minutes, and then centrifuged at 12,000 g for 10 minutes. The supernatant was transferred to a 96-well plate. For each assay, 10 μg of total protein were incubated for 1 hour at 37° C. with increasing concentrations (1 nM to 10 μM) of test compound diluted in assay buffer (50 mM tris-HCl (tris(hydroxymethyl)aminomethane-HCl), pH 7.5; 150 mM NaCl). DMSO alone was used as a control in every assay plate. After incubation, a specific fluorogenic proteasome substrate was added to each assay reaction at a final concentration of 40 μM in a total volume of 100 μL. N-Succinyl-Leu-Leu-Val-Tyr-7-amino-4-methylcoumarin (Suc-Leu-Leu-Val-Tyr-AMC) was used for measuring chymotrypsin-like (CT-L) activity, t-butoxycarbonyl-Leu-Arg-Arg-7-amino-4-methylcoumarin (Boc-Leu-Arg-Arg-AMC) for trypsin-like (T-L) activity, and benzyloxycarbonyl-L-leucyl-L-leucyl-L-glutamyl-7-amino-4-methylcoumarin (Z-Leu-Leu-Glu-AMC) for caspase-like (C-L) activity. The excitation wavelength was set at 360 nm and the fluorescence emission wavelength of AMC was detected at 460 nm. The fluorescence of free AMC released during the enzymatic reaction was measured with a SpectraMax M5 fluorescent spectrophotometric plate reader (Molecular Devices, Sunnyvale, Calif.). AMC release rate was measured at 37° C. in a kinetic mode, recording every 5 minutes for 30 minutes. Experiments were performed in triplicate and repeated at least twice.
All mouse experiments were performed in accordance with approval from the Ontario Cancer Institute institutional animal review board. Five- to six-week-old male non-obese diabetic/severe combined immunodeficient (NOD/SCID) mice were grouped randomly (n=3 mice per group). Mice were administered vehicle (5% DMSO, 20% Cremophor) or compounds of Formula I at different doses either intravenously or by oral gavage, and venous blood samples (20-50 μL) were collected from each mouse over 24 hours. Blood samples were mixed with heparin (APP Pharmaceuticals; Schaumburg, Ill.) in 0.5 mL tubes in accordance with the manufacturer's instructions. After centrifugal separation at 3,000 g for 10 minutes, red blood cells (RBCs) in the bottom layer were transferred into a new tube and stored at −70° C. until use. RBCs were lysed with assay lysis buffer and incubated on ice for 30 minutes, mixing by vortex every 5 minutes, and then centrifuged at 12,000 g for 10 minutes. The supernatant was transferred to a 96-well plate and proteasome activity was measured as described above for tumor cell lysates.
Proteasome subunit activity (Chymotrypsin-like, Trypsin-like, Caspase-like, CT-L, T-L, C-L, respectively) were monitored over the course of 24 hrs following […] administration of representative compounds of Formula I. NOD/SCID mice were treated with compounds of Formula I (2 mg/kg by iv administration) or vehicle control and carfilzomib for up to 24 hours, as described above. Table 9 summarizes the data on pharmacodynamic activity of representative compounds of Formula I following a dose of 2 mg/kg intravenous (i.v) administration to mice. Data are presented as mean residual activity (SEM) relative to vehicle treated controls.

For the next experiment, the system named is U251. The experiment can be described thus: NCI screening panel, U251 (CNS Cancer). The class given is cell-based, human. As for the experimental part:
Representative compounds of Formula I were screened using the National Cancer Institute (NCI) screening panel, which consists of a panel of human tumor cell lines, representing leukemia, melanoma, and cancers of the lung, colon, ovary, breast, prostate and renal system.
After 24 h, two plates of each cell line are fixed in situ with TCA, to represent a measurement of the cell population for each cell line at the time of drug addition (Tz). Experimental drugs are solubilised in dimethyl sulfoxide at 400-fold the desired final maximum test concentration and stored frozen prior to use. At the time of drug addition, an aliquot of frozen concentrate is thawed and diluted to twice the desired final maximum test concentration with complete medium containing 50 μg/mL gentamicin. Additional four, 10-fold or ½ log serial dilutions are made to provide a total of five drug concentrations plus control. Aliquots of 100 μl of these different drug dilutions are added to the appropriate microtiter wells already containing 100 μl of medium, resulting in the required final drug concentrations.
Following drug addition, the plates are incubated for an additional 48 h at 37° C., 5% CO2, 95% air, and 100% relative humidity. For adherent cells, the assay is terminated by the addition of cold TCA (trichloroacetic acid). Cells are fixed in situ by the gentle addition of 50 μl of cold 50% (w/v) TCA (final concentration, 10% TCA) and incubated for 60 minutes at 4° C. The supernatant is discarded, and the plates are washed five times with tap water and air dried. Sulforhodamine B (SRB) solution (100 μl) at 0.4% (w/v) in 1% acetic acid is added to each well, and plates are incubated for 10 minutes at room temperature. After staining, unbound dye is removed by washing five times with 1% acetic acid and the plates are air dried. Bound stain is subsequently solubilised with 10 mM trizma base, and the absorbance is read on an automated plate reader at a wavelength of 515 nm. For suspension cells, the methodology is the same except that the assay is terminated by fixing settled cells at the bottom of the wells by gently adding 50 μl of 80% TCA (final concentration, 16% TCA). Using the seven absorbance measurements [time zero, (Tz), control growth, (C), and test growth in the presence of drug at the five concentration levels (Ti)], the percentage growth is calculated at each of the drug concentrations levels. Percentage growth inhibition is calculated as: [(Ti−Tz)/(C−Tz)]×100 for concentrations for which Ti>/=Tz and [(Ti−Tz)/Tz]×100 for concentrations for which Ti<Tz.
Three dose response parameters are calculated for each experimental agent. Growth inhibition of 50% (GI50) is calculated from [(Ti−Tz)/(C−Tz)]×100=50, which is the drug concentration resulting in a 50% reduction in the net protein increase (as measured by SRB staining) in control cells during the drug incubation. The drug concentration resulting in total growth inhibition (TGI) is calculated from Ti=Tz. The LC50 (concentration of drug resulting in a 50% reduction in the measured protein at the end of the drug treatment as compared to that at the beginning) indicating a net loss of cells following treatment is calculated from [(Ti−Tz)/Tz]×100=−50. Values are calculated for each of these three parameters if the level of activity is reached. However, if the effect is not reached or is exceeded, the value for that parameter is expressed as greater or less than the maximum or minimum concentration tested.

The mark [2] stands for this setting: 30 min, read-out: Chymotrypsin-like (CT-L) mean residual activity relative to vehicle treated controls.
[3] abbreviates: 24 hrs, read-out: Chymotrypsin-like (CT-L) mean residual activity relative to vehicle treated controls.
Where [4] appears, read: time 0, read-out: Chymotrypsin-like (CT-L) mean residual activity relative to vehicle treated controls.

For `CC(C)C[C@H](NC(=O)[C@H](COC(F)F)NC(=O)CN1CCOCC1)C(=O)N[C@@H](COC(F)F)C(=O)N[C@@H](CC(C)C)C(=O)[C@@]1(C)CO1` [Example 1, (2S)—N-[(1S)-1-(difluoromethoxymethyl)-2-[[(1S)-3-methyl-1-[(2R)-2-methyloxirane-2-carbonyl]butyl]amino]-2-oxo-ethyl]-2-[[(2S)-3-(difluoromethoxy)-2-[(2-morpholinoacetyl)amino]propanoyl]amino]-4-methyl-pentanamide], in experiment [1] (setting [2]), the remaining activity at 2 mg/kg was 20%. Also, the remaining activity at 2 mg/kg in experiment [1] (setting [3]) was 21%. Also, the remaining activity at 2 mg/kg in experiment [1] (setting [4]) worked out at 100%. In the experiment with U251, the Log10GI50 was −7.58, the Log10LC50 is greater than −4.00 and the Log10TGI50 is reported as −6.75.
On to `CC(C)C[C@H](NC(=O)[C@H](COC(F)F)NC(=O)[C@H](COC(F)F)NC(=O)[C@H](CCc1ccccc1)NC(=O)CN1CCOCC1)C(=O)[C@@]1(C)CO1` [Example 7, (2S)-N-[(1S)-1-(difluoromethoxymethyl)-2-[[(1S)-1-(difluoromethoxymethyl)-2-[[(1S)-3-methyl-1-[(2R)-2-methyloxirane-2-carbo-nyl]butyl]amino]-2-oxo-ethyl]amino]-2-oxo-ethyl]-2-[(2-morpholinoacetyl)amino]-4-phenyl-butanamide], for which, in experiment [1] (setting [2]), the remaining activity at 2 mg/kg came out at 35%. Besides, the remaining activity at 2 mg/kg in experiment [1] (setting [3]) was 30%. The remaining activity at 2 mg/kg in experiment [1] (setting [4]) turned out to be 100%. In the experiment on U251, this molecule registered a Log10GI50 of −7.63, a Log10LC50 of −5.04 and a Log10TGI50 of −6.79.
Take `CC(C)C[C@H](NC(=O)[C@H](COC(F)F)NC(=O)CN1CCOCC1)C(=O)N[C@@H](Cc1ccccc1)C(=O)N[C@@H](CC(C)C)C(=O)[C@@]1(C)CO1` [Example 2, (2S)-N-[(1S)-1-benzyl-2-[[(1S)-3-methyl-1-[(2R)-2-methyloxirane-2-carbonyl]butyl]-amino]-2-oxo-ethyl]-2-[[(2S)-3-(difluoromethoxy)-2-[(2-morpholinoacetyl)amino]propanoyl]amino]-4-methyl-pentanamide]: the remaining activity at 2 mg/kg in experiment [1] (setting [2]) turned out to be 29%. For the same molecule, in experiment [1] (setting [3]), the remaining activity at 2 mg/kg worked out at 24%. For the same molecule, in experiment [1] (setting [4]), the remaining activity at 2 mg/kg is 100%. In the experiment with U251, this molecule displayed a Log10GI50 of −7.72, a Log10LC50 of −5.63 and a Log10TGI50 of −6.87.
Regarding `CC(C)C[C@H](NC(=O)[C@H](COC(F)F)NC(=O)[C@H](COC(F)F)NC(=O)[C@H](COC(F)F)NC(=O)CN1CCOCC1)C(=O)[C@@]1(C)CO1` [Example 17, (2S)-3-(difluoromethoxy)-N-[(1S)-1-(difluoromethoxymethyl)-2-[[(1S)-1-(difluoro-methoxymethyl)-2-[[(1S)-3-methyl-1-[(2R)-2-methyloxirane-2-carbonyl]butyl]amino]-2-oxo-ethyl]amino]-2-oxo-ethyl]-2-[(2-mor-pholinoacetyl)amino]-propanamide], in experiment [1] (setting [2]), the remaining activity at 2 mg/kg was 25%. Also, the remaining activity at 2 mg/kg in experiment [1] (setting [3]) worked out at 23%. The remaining activity at 2 mg/kg in experiment [1] (setting [4]) was 100%. In addition, in the experiment with U251, the Log10GI50 was −7.26, the Log10LC50 is −5.25 and the Log10TGI50 is given as −6.32.
With `CC(C)C[C@H](NC(=O)[C@H](COC(F)F)NC(=O)CN1CCOCC1)C(=O)N[C@@H](COC(F)F)C(=O)N[C@@H](Cc1ccccc1)C(=O)[C@@]1(C)CO1` [Example 4, (2S)-N-[(1S)-2-[[(1S)-1-benzyl-2-[(2R)-2-methyloxiran-2-yl]-2-oxo-ethyl]amino]-1-(difluoromethoxymethyl)-2-oxo-ethyl]-2-[[(2S)-3-(difluoromethoxy)-2-[(2-mor-pholinoacetyl)amino]propanoyl]amino]-4 methyl-pentanamide], the remaining activity at 2 mg/kg in experiment [1] (setting [2]) turned out to be 34%. The remaining activity at 2 mg/kg in experiment [1] (setting [3]) was 37%. For the same molecule, the remaining activity at 2 mg/kg in experiment [1] (setting [4]) is 100%. Also, in the experiment with U251, the Log10GI50 was −7.44, the Log10LC50 is listed as −4.62 and the Log10TGI50 is reported as −6.48.
`CC(C)C[C@H](NC(=O)[C@H](Cc1ccccc1)NC(=O)[C@H](COC(F)F)NC(=O)[C@H](COC(F)F)NC(=O)CN1CCOCC1)C(=O)[C@@]1(C)CO1` [Example 11, (2S)-2-[[(2S)-3-(difluoromethoxy)-2-[[(2S)-3-(difluoromethoxy)-2-[(2-morpholinoacetyl)-amino]propanoyl]amino]propanoyl]amino]-N-[(1S)-3-methyl-1-[(2R)-2-methyloxirane-2-carbonyl]butyl]-3-phenyl-propanamide]: the remaining activity at 2 mg/kg in experiment [1] (setting [2]) was found to be 30%. In experiment [1] (setting [3]), the remaining activity at 2 mg/kg is 28%. Further, the remaining activity at 2 mg/kg in experiment [1] (setting [4]) was 100%. In the experiment on U251, this molecule showed a Log10GI50 of −7.59, a Log10LC50 of −4.04 and a Log10TGI50 of −6.71.
